Experimental data taken from patent publication US8871753B2, “Macrocyclic compounds and their use as kinase inhibitors” (Incyte Corporation, priority 2008, dated 2014).
Where a name gives a salt, the structure may show the parent alone. Read-outs that look alike come from different tables or passages of the source.

Tests used:
Assay type in all cases: biochemical
[1] = biological target: T1, human JAK1 (a.a. 837-1142) (Homo sapiens, UniProt P23458); test: In vitro JAK kinase assay (HTRF, phosphorylation of a biotinylated peptide), JAK1; details: read-out: JAK1 IC50
T1 construct: human JAK1 (a.a. 837-1142); His tag (N); made in house; host or cells: insect cells (baculovirus)
In short: (§1)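 Kinase activity was measured as phosphorylation of a biotinylated peptide, with ATP at 90 μM for JAK1, 30 μM for JAK2 and 3 μM for JAK3. Reactions ran 1 hr at room temperature, were stopped with EDTA plus SA-APC and Eu-Py20, and were read by HTRF after 40 minutes of antibody binding.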

[2] = biological target: T2, human JAK2 (a.a. 828-1132) (Homo sapiens, UniProt O60674); test: In vitro JAK kinase assay (HTRF, phosphorylation of a biotinylated peptide), JAK2
T2 construct: JAK2 (a.a. 828-1132); His tag (N); made in house; host or cells: insect cells (baculovirus)
In short: as §1

[3] = biological target: T3, human JAK3 (a.a. 781-1124) (Homo sapiens, UniProt P52333); test: In vitro JAK kinase assay (HTRF, phosphorylation of a biotinylated peptide), JAK3
T3 construct: JAK3 (a.a. 781-1124); His tag (N); made in house; host or cells: insect cells (baculovirus)
In short: as §1

TYK2 = TYK2 (Homo sapiens, UniProt P29597); test: TYK2 kinase inhibition (Table A1)
[4] = biological target: T4, Recombinant Human Anaplastic Lymphoma Kinase (Homo sapiens, UniProt Q9UM73); test: ALK HTRF kinase assay
T4 construct: purchased Invitrogen, Carlsbad, Calif
In short: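 Readout was HTRF between a Eu-W1024 anti-phosphotyrosine antibody and streptavidin-APC bound to biotinylated peptide phosphorylated by recombinant human ALK. IC50 values came from a four-parameter logistic fit.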

[5] = compound at a concentration of 500 nM or 1 mM (not specified), cells shown as percentage
[6] = Table B1, cells without percent sign
[7] = method AA1 (90 μM ATP) or AA2 (1000 μM ATP), not stated per value
[8] = method AA1 (30 μM ATP) or AA2 (1000 μM ATP), not stated per value
[9] = method AA1 (3 μM ATP) or AA2 (1000 μM ATP), not stated per value
[10] = compound at 500 nM or 1 mM, 90 μM ATP

T2 sequence (O60674 828-1132): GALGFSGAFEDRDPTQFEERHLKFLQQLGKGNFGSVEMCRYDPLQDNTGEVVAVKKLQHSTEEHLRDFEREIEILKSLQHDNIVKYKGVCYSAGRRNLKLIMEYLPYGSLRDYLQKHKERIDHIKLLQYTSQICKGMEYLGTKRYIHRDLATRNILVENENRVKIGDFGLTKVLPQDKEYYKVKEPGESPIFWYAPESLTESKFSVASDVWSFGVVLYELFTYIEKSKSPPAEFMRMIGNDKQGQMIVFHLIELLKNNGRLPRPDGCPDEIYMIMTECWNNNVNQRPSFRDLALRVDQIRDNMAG
Chain of TYK2 (P29597 whole entry): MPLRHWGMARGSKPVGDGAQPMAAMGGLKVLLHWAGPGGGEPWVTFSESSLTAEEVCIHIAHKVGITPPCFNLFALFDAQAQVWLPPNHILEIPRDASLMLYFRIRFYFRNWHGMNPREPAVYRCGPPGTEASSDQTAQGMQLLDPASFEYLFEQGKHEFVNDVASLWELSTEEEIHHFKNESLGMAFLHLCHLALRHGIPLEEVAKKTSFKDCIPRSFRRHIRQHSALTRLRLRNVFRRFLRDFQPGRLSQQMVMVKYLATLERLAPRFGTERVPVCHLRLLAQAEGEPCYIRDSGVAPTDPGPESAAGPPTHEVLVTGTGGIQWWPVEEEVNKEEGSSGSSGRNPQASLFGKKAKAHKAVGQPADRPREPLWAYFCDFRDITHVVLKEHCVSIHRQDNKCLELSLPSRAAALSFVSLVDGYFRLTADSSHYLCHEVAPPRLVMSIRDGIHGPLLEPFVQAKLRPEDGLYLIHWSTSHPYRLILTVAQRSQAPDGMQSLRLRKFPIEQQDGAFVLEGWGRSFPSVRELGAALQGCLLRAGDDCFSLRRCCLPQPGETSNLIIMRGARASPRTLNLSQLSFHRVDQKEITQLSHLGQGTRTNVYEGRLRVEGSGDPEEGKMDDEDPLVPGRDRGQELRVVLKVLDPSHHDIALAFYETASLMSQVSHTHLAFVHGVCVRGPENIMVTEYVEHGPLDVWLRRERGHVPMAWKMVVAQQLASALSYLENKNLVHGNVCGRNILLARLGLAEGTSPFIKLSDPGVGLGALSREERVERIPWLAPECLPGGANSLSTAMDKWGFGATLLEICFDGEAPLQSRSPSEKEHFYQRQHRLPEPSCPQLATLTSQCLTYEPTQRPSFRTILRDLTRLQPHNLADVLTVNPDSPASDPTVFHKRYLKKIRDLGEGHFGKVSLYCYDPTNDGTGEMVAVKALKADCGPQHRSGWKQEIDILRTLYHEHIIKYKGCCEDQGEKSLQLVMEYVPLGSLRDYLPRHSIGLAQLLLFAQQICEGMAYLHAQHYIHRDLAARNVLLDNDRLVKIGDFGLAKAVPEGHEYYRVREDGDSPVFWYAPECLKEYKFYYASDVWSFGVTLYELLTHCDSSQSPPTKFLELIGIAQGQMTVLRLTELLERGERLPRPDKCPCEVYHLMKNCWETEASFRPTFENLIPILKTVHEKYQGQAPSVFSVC
T1 sequence (P23458 849-1154): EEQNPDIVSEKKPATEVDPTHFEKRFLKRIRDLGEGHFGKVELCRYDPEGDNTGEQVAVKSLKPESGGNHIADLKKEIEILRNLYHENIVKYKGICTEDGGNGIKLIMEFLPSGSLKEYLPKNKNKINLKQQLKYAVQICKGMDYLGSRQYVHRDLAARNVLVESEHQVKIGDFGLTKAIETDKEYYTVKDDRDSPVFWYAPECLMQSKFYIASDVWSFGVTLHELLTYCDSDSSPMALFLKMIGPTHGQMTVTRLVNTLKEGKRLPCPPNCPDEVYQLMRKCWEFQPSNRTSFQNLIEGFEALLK
T3 sequence (P52333 781-1124): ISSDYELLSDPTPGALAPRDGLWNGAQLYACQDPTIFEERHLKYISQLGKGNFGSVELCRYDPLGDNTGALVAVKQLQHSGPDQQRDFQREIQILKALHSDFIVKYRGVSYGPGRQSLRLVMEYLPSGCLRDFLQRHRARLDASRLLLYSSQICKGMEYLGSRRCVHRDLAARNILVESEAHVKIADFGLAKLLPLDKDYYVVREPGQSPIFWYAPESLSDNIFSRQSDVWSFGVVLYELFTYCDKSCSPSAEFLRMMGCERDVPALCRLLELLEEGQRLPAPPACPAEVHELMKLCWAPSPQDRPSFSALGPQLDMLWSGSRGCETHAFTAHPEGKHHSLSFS
T4 sequence (Q9UM73 19-1620): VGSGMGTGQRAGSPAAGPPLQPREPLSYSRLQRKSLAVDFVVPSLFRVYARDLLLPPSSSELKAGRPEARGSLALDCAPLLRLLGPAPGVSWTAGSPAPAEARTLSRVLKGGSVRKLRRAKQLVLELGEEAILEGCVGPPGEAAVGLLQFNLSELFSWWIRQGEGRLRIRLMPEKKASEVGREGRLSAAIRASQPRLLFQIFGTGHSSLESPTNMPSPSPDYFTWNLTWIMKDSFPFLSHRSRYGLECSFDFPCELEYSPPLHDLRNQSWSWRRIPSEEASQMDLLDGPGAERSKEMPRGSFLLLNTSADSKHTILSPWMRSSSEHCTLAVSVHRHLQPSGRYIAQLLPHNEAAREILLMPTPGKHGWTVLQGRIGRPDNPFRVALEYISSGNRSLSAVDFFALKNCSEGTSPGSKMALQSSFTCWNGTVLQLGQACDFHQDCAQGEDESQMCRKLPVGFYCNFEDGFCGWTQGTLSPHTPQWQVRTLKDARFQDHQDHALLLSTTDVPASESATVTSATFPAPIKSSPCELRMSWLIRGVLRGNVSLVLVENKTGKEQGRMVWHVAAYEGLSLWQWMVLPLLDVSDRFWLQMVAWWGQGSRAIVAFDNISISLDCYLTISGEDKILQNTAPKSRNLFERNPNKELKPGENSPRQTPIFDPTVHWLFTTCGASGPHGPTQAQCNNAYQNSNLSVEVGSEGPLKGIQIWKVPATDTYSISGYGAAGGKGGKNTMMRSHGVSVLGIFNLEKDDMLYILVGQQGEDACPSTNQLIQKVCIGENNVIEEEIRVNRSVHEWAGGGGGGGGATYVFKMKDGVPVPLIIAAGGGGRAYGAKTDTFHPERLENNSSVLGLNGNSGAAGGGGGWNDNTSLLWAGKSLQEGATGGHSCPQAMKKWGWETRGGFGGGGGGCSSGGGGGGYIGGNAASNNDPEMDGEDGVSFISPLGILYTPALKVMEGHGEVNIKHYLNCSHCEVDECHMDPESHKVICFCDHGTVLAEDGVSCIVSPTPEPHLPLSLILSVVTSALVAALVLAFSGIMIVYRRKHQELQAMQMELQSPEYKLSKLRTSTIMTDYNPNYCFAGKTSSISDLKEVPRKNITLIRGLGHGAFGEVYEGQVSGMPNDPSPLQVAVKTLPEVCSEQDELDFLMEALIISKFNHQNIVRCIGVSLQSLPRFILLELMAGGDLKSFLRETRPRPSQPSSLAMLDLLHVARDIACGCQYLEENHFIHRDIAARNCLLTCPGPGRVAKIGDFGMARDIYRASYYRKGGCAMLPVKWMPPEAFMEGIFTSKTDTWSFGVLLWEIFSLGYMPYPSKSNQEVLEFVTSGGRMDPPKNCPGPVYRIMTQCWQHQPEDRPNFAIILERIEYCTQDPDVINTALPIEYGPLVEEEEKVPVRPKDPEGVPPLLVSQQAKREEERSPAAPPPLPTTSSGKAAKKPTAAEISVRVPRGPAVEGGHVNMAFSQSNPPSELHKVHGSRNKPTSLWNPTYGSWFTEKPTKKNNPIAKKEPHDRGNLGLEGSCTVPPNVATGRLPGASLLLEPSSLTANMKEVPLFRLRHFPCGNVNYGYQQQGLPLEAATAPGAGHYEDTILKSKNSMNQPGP

SMILES | IC50 ([1]; Table B1) [nM] | IC50 ([2]; Table B1) [nM] | IC50 ([3]; Table B1) [nM] | IC50 (TYK2; Table B1) [nM] | IC50 [1, 7] [nM] | IC50 [2, 8] [nM] | IC50 [3, 9] [nM] | IC50 (TYK2) [nM] | ALK % of inhibition at a concentration of 500 nM or 1 mM [4, 10] [%] | other results
O=C(c1cc2cc(c1)OCCSc1cccc(c1)Nc1nc(ncc1Cl)N2)N1CCOCC1 [Example D52, trifluoroacetate] | – | – | – | – | – | – | – | – | – | IC50 ([1]; Table D1): 1.5 nM; IC50 ([2]; Table D1): 1.2 nM; IC50 ([3]; Table D1): 13 nM; IC50 (TYK2; Table D1): 4.4 nM; IC50 ([4]; Table D1, 90 μM ATP): 420 nM
Cc1cc(C(=O)Nc2ccc3cc2CCc2cccc(c2)Nc2ncc(Cl)c(n2)N3)no1 [Example B68, N-[6-Chloro-2,4,8,22-tetraazatetracyclo[14.3.1.1(3,7).1(9,13)]docosa-1(20), 3(22),4,6,9(21),10,12,16,18-nonaen-12-yl]-5-methylisoxazole-3-carboxamide trifluoroacetate] | 1.4 | 2.3 | 19 | 3.6 | – | – | – | – | – | ALK % of inhibition at a concentration of 500 nM or 1 mM [4, 5]: 19%
O=C(Nc1ccc2cc1CCc1cccc(c1)Nc1ncc(Cl)c(n1)N2)N[C@H]1CCNC1 [Example B167, N-[6-Chloro-2,4,8,22-tetraazatetracyclo[14.3.1.1(3,7).1(9,13)]docosa-1(20),3(22),4,6,9(21),10,12,16,18-nonaen-12-yl]-N′-[(3S)-pyrrolidin-3-yl]urea bis(trifluoroacetate)] | 3.7 | 12 | 43 | 30 | – | – | – | – | – | ALK % of inhibition at a concentration of 500 nM or 1 mM [4, 5]: 17%
CC(C)(C)NS(=O)(=O)c1cc2cc(c1)Nc1nc(ncc1Cl)Nc1cccc(c1)CC2 [Example B16, N-(tert-Butyl)-6-chloro-2,4,8,22-tetraazatetracyclo[14.3.1.1(3,7).1(9,13)]docosa-1(20),3(22),4,6,9(21),10,12,16,18-nonaene-11-sulfonamide trifluoroacetate] | 52 | 7.5 | 182 | 206 | – | – | – | – | – | IC50 [4, 6]: > 10000 nM
Oc1cc2cc(c1)Nc1nc(ncc1Cl)Nc1cccc(c1)CC2 [Example A22, 6-Chloro-2,4,8,22-tetraazatetracyclo[14.3.1.1(3,7).1(9,13)]docosa-1(20),3(22),4,6,9(21),10,12,16,18-nonaen-11-ol trifluoroacetate] | – | – | – | – | 11 | 6.2 | 10 | 22 | 54 | –
Cn1cncc1C(=O)N1CCC(CC(=O)Nc2ccc3cc2CCc2cncc(c2)Nc2ncc(Cl)c(n2)N3)CC1 [Example A134, N-[6-Chloro-2,4,8,18,22-pentaazatetracyclo[14.3.1.1(3,7).1(9,13)]docosa-1(20),3(22),4,6,9(21),10,12,16,18-nonaen-12-yl]-2-{1-[(1-methyl-1H-imidazol-5yl)carbonyl]piperidin-4-yl}acetamide bis(trifluoroacetate)] | – | – | – | – | 6.2 | 18 | 226 | 25 | 30 | –
CN(Cc1ccc2cc1CCc1cncc(c1)Nc1ncc(Cl)c(n1)N2)CC1CCN(S(=O)(=O)c2ccccc2C#N)CC1 [Example B340, 2-[(4-{[{[6-Chloro-2,4,8,18,22-pentaazatetracyclo[14.3.1.1(3,7).1(9,13)]docosa-1(20),3(22),4,6,9(21),10,12,16,18-nonaen-12-yl]methyl}(methyl)amino]methyl}piperidin-1-yl)sulfonyl]benzonitrile tris(trifluoroacetate)] | 1.2 | 41 | > 400 | 180 | – | – | – | – | – | ALK % of inhibition at a concentration of 500 nM or 1 mM ([4]; percentage inhibition of the example compound at a concentration of 500 nM or 1 mM (not specified which)): 24%
O=C(CC1CCN(c2ccncc2)CC1)Nc1ccc2cc1CCc1cncc(c1)Nc1ncc(Cl)c(n1)N2 [Example A242, N-[6-Chloro-2,4,8,18,22-pentaazatetracyclo[14.3.1.1(3,7).1(9,13)]docosa-1(20),3(22),4,6,9(21),10,12,16,18-nonaen-12-yl]-2-(1-pyridin-4-ylpiperidin-4-yl)acetamide tris(trifluoroacetate)] | – | – | – | – | 40 | > 400 | > 400 | > 400 | 31 | –
Oc1ccc2cc1Nc1nc(ncc1Cl)Nc1cccc(c1)CC2 [Example A26, 6-Chloro-2,4,8,22-tetraazatetracyclo[14.3.1.1(3,7).1(9,13)]docosa-1(20),3(22),4,6,9(21),10,12,16,18-nonaen-10-ol trifluoroacetate] | – | – | – | – | 36 | 11 | 9.2 | 45 | – | IC50 ([4]; 90 μM ATP): 350 nM
N#Cc1cccc(C(=O)N2CCC(CC(=O)Nc3ccc4cc3CCc3cncc(c3)Nc3ncc(Cl)c(n3)N4)CC2)c1 [Example A191, N-[6-Chloro-2,4,8,18,22-pentaazatetracyclo[14.3.1.1(3,7).1(9,13)]docosa-1(20),3(22),4,6,9(21),10,12,16,18-nonaen-12-yl]-2-[1-(3-cyanobenzoyl)piperidin-4-yl]acetamide bis(trifluoroacetate)] | – | – | – | – | 67 | > 200 | > 200 | > 200 | 25 | –
O=C(Nc1ccc2cc1CCc1cncc(c1)Nc1ncc(Cl)c(n1)N2)N[C@H]1CCN(C(=O)c2cn[nH]c2)C1 [Example B267, N-[6-chloro-2,4,8,18,22-pentaazatetracyclo[14.3.1.1(3,7).1(9,13)]docosa-1(20),3(22),4,6,9(21),10,12,16,18-nonaen-12-yl]-N′-[(3S)-1-(1H-pyrazol-4-ylcarbonyl)pyrrolidin-3-yl]urea bis(trifluoroacetate)] | 27 | 765 | > 10000 | 887 | – | – | – | – | – | ALK % of inhibition at a concentration of 500 nM or 1 mM [4, 5]: 12%
O=C(Nc1ccc(N2CCOCC2)cc1)c1cc2cc(c1)Nc1nc(ncc1Cl)Nc1cccc(c1)CC2 [Example B9, 6-Chloro-N-(4-morpholin-4-ylphenyl)-2,4,8,22-tetraazatetracyclo[14.3.1.1(3,7).1(9,13)]docosa-1(20),3(22),4,6,9(21),10,12,16,18-nonaene-11-carboxamide trifluoroacetate] | 263 | 130 | > 1000 | 683 | – | – | – | – | – | IC50 [4, 6]: > 1000 nM
CNC(=O)N1CCC(CC(=O)Nc2ccc3cc2CCc2cncc(c2)Nc2ncc(Cl)c(n2)N3)C1 (stereo not shown) [Example A93, 3-(2-{[6-Chloro-2,4,8,18,22-pentaazatetracyclo[14.3.1.1(3,7).1(9,13)]docosa-1(20),3(22),4,6,9(21),10,12,16,18-nonaen-12-yl]amino}-2-oxoethyl)-N-methylpyrrolidine-1-carboxamide bis(trifluoroacetate)] | – | – | – | – | 22 | 24 | 112 | 43 | 30 | –
O=S(=O)(Nc1ccc2cc1CCc1cccc(c1)Nc1ncc(Cl)c(n1)N2)c1cccc(C(F)(F)F)c1 [Example B163, N-[6-Chloro-2,4,8,22-tetraazatetracyclo[14.3.1.1(3,7).1(9,13)]docosa-1(20), 3(22),4,6,9(21),10,12,16,18-nonaen-12-yl]-3-(trifluoromethyl)benzenesulfonamide trifluoroacetate] | 0.54 | 0.24 | 1.1 | 0.97 | – | – | – | – | – | ALK % of inhibition at a concentration of 500 nM or 1 mM [4, 5]: 80%
N#Cc1cccc(NC(=O)N2CCC(CC(=O)Nc3ccc4cc3CCc3cncc(c3)Nc3ncc(Cl)c(n3)N4)CC2)c1 [Example A142, 4-(2-{[6-Chloro-2,4,8,18,22-pentaazatetracyclo[14.3.1.1(3,7).1(9,13)]docosa-1(20),3(22),4,6,9(21),10,12,16,18-nonaen-12-yl]amino}-2-oxoethyl)-N-(3-cyanophenyl)piperidine-1-carboxamide bis(trifluoroacetate)] | – | – | – | – | 2.4 | 4.8 | > 100 | 6.5 | 41 | –
CC(=O)Nc1ccc(C(=O)Nc2ccc3cc2CCc2cccc(c2)Nc2ncc(Cl)c(n2)N3)cc1 [Example B45, 4-(Acetylamino)-N-[6-chloro-2,4,8,22-tetraazatetracyclo[14.3.1.1(3,7).1(9,13)]docosa-1(20),3(22),4,6,9(21),10,12,16,18-nonaen-12-yl]benzamide trifluoroacetate] | 0.88 | 0.6 | 3.7 | 0.53 | – | – | – | – | – | IC50 [4, 6]: 95 nM
O=C(COc1ccc2cc1CCc1cncc(c1)Nc1ncc(Cl)c(n1)N2)N1CCn2c(nnc2C(F)(F)F)C1 [Example A249, 6-Chloro-12-{2-oxo-2-[3-(trifluoromethyl)-5,6-dihydro[1,2,4]triazolo[4,3-a]pyrazin-7(8H)-yl]ethoxy}-2,4,8,18,22pentaazatetracyclo[14.3.1.1(3,7).1(9,13)]docosa1(20),3(22),4,6,9(21),10,12,16,18-nonaene bis(trifluoroacetate)] | – | – | – | – | 226 | > 400 | > 400 | > 400 | 28 | –
